How the values were obtained:
[1] = test system: carrageenin induced paw inflammation; assay: Screening test for anti-inflammatory activity: carrageenin induced paw inflammation in the rat (method of Winter et al.); assay type: in vivo; conditions: activity relative to phenylbutazone = 1; oral by gavage at hour 0, female rats, carrageenin at hour 1, paws weighed at hour 4
Experimental: Initial small animal screening tests to determine anti-inflammatory activity potential include the carrageenin induced paw inflammation in the rat according to the method of Winter, et al., Proc. Soc. Exp. Biol. Med., 111:544-547, (1962) and the cotton pellet granuloma test in the rat according to the method of Meier, et al Experientia 6:469-471, (1950) and modifications thereof. The oral anti-inflammatory activity is determined utilizing carrageenin induced paw inflammation in the rat in accordance with the method of Winter, et al., Pro.Soc.Exp.Biol.Med., III:544-547, (1962). Female rats weighing 80-90 grams are used. The test materials are given at hour 0 orally by gavage in 1 ml of aqueous vehicle. At hour 1, 0.05 ml of a 1% solution (in 0.9% NaCl) of carrageenin is injected into the right hind paw. This injection causes inflammation of the paw. The rats are sacrificed at hour 4, at which time both hind paws are removed and weighed separately. The percent increase in paw size is calculated as follows: • Wt. of right paw - Wt of left ^paw X 100 […] The smaller the percent increase in paw size, the lesser the degree of inflammation and the greater the anti-inflammatory activity. Compounds of this invention show anti-inflammatory activity in this test as illustrated in Table 1 below.

[2] = test system: phenylquinone induced writhing; assay: Screening test for analgetic activity: mouse analgetic (anti-writhing) assay (method of Hendershot & Forsaith); assay type: in vivo; conditions: activity relative to aspirin = 1; oral by gavage, male Swiss-Webster mice, phenylquinone IP twenty minutes later
Experimental: Small animal screening tests to determine analgetic activity potential include the mouse analgetic (anti-writhing) assay according to the method of Hendershot and Forsaith, J. Pharmacol. Exp. Ther., 125:237-240, (1959).
The oral analgetic activity potential is determined utilizing the mouse analgetic (anti-writhing) assay in accordance with the method of Hendershot & Forsaith, J.Pharmacol.Exp.Ther., 125:237-240, (1959).
The test material is administered orally by gavage in an aqueous vehicle at time 0 to 18-20 gram male Swiss-Webster mice. Twenty minutes later 0.5 ml of a 0.02% solution of phenylquinone is injected IP. This solution induces writhing.
The total number of mice that writhe and the average number of writhes per mouse indicates the activity of the compound tested; the fewer writhes per mouse indicates a greater activity. Compounds of this invention show analgetic activity in this assay as illustrated in Table 2 below.

CSc1ccc(C(=O)c2cc(C(C)C(=O)O)cc3ccoc23)cc1 (racemic) [d,l 2-(7-(4-methylthiobenzoyl)benzofuran-5-yl)-propionic acid]
(Phenylbutazone = 1) Antiinflammatory Activity [1]: 15 | Analgesic Activity (Aspirin = 1) [2]: 25

CC(C(=O)O)c1cc(C(=O)c2ccccc2)c2occc2c1 (racemic) [d,l 2-(7-benzoylbenzofuran-5-yl)propionic acid]
(Phenylbutazone = 1) Antiinflammatory Activity [1]: 2 | Analgesic Activity (Aspirin = 1) [2]: 50

CC(C(=O)O)c1cc(C(=O)c2ccc(Cl)cc2)c2occc2c1 (racemic) [d.1-2-(7-(4-chlorobenzoyl)benzofuran-5-yl)-propionic acid]
(Phenylbutazone = 1) Antiinflammatory Activity [1]: 4 | Analgesic Activity (Aspirin = 1) [2]: 35

O=C(O)Cc1cc(C(=O)c2ccc(Cl)cc2)c2occc2c1 [7-(4-chlorobenzoyl)benzofuran-5-ylacetic acid]
(Phenylbutazone = 1) Antiinflammatory Activity [1]: 0.5 | Analgesic Activity (Aspirin = 1) [2]: 32

O=C(O)Cc1cc(C(=O)c2ccc(Cl)cc2)c2sccc2c1 [7-(4-chlorobenzoyl)benzothiophen-5-ylacetic acid]
(Phenylbutazone = 1) Antiinflammatory Activity [1]: 1.5 | Analgesic Activity (Aspirin = 1) [2]: 7

CSc1ccc(C(=O)c2cc(CC(=O)O)cc3ccoc23)cc1 [7-(4-methylthiobenzoyl)benzofuran-5-ylacetic acid]
(Phenylbutazone = 1) Antiinflammatory Activity [1]: 1.5 | Analgesic Activity (Aspirin = 1) [2]: 95

O=C(O)Cc1cc(C(=O)c2ccccc2)c2occc2c1 [Ar=phenyl, R1=H, X1=O, X2=O, R2=H, R3=H, 7-benzoylbenzofuran-5-ylacetic acid]
(Phenylbutazone = 1) Antiinflammatory Activity [1]: 1 | Analgesic Activity (Aspirin = 1) [2]: 25

Reference: patent EP0132130A2, “Aroyl benzofuran and benzothiophene acetic and propionic acids processes for their production and pharmaceutical compositions containing them” (SYNTEX (U.S.A.) INC., priority 1983, dated 1985)
